Measured values from article PMC4860631, “Pharmacokinetics and tolerability of NSC23925b, a novel P-glycoprotein inhibitor: preclinical study in mice and rats” (Scientific Reports, 2016).
Where two headings read alike, the source gives them in different places.

How the values were obtained:
CYP3A4 = target: T1, CYP3A4 (Homo sapiens, UniProt P08684); assay: HLM-LC-MS CYP450 inhibition assay, CYP3A4; assay type: in vitro ADME
T1 construct: from tissue; host or cells: human liver microsomes
Description: (§4) A sigmoid-shaped curve (Log(inhibitor) vs. Response-Variable slope) was fitted to the data and the IC50 was calculated using GraphPad Prism software.
(§5) This assay used a cocktail of drug-probe substrates that are specific to each isozyme with HLM and LC-MS detection[33][34]. Each test article and reference inhibitor was dissolved in 40% DMSO and 60% acetonitrile (ACN) mixture. […] Substrates were then added to their respective well containing the compound/HLM solution to start the reaction. […] The solution was centrifuged at 4 °C for 30 min at 3,700 rpm and the supernatant was transferred for LC-MS analysis. The concentrations of the metabolites were determined from standard curves using commercially available metabolite standards. Compounds were tested in triplicate. The half maximal inhibitory concentration (IC50) values were determined by plotting the metabolite formation over the logarithm of the compound concentration using Prism 5.0 software (GraphPad Software Inc., San Diego, CA).

in vivo [1] = conditions: male, Sprague-Dawley, rat; for AUC(0-inf): AUC0-inf; for AUC(0-t): AUC0-t; for k el: Kel; for half-life: t1/2
CYP2D6 = CYP2D6 (Homo sapiens, UniProt P10635); assay: HLM-LC-MS CYP450 inhibition assay, CYP2D6
Description: as §4, §5

BALB/c mice = assay: Determination of maximum tolerated dose (MTD) in mice; assay type: in vivo; conditions: mice, 5 exposed
Description: (§1) The MTD determination assay was composed of sighting study and main study. For the sighting study of the determination maximum tolerable dose (MTD) of NSC23925b, one of each animal (one female rat, one male rat, one female mouse, and one male mouse) was used at each I.V. and I.P. injection dose level. The starting dose was selected from the fixed dose levels (5, 50, 500, 2000 mg/kg) as a dose expected to produce evident toxicity. The first animal was dosed and observed. Time of appearance, degree, and lasting/recovery time of signs were recorded in details. Afterwards, animals were observed twice on the dosing day and then changed to daily observation. The observation lasted at least 14 days. If the first animal died or appeared impaired, the second animal received a middle dose of the two doses and vice versa. The sighting study was completed when a decision on the starting dose for the main study was made.
(§2) During the main study, a total of five animals of one sex were used for each dose level investigated. The five animals were made up of one animal from the sighting study dosed at the selected dose level together with an additional four animals. Each group received one of the fixed doses by I.V. and I.P. based on the sighting study. If the first animal died or appeared impaired, the second animal received a middle dose of the two doses and vice versa.
(§3) Animals were fasted overnight prior to dosing. Following the period of fasting, the animals were weighed and the dose was calculated according to the body weight. After the animals were administrated a dose volume of 10 mL/kg, food was withheld for another 3–4 hours. Individual weights of animals were determined shortly before the test substance was administered and twice weekly thereafter. Weight changes were calculated and recorded. Animals injected with saline were the control group for the weight alteration.

[2] = as above; assay type: in vivo; conditions: mouse, in vivo
Description: as §1, §2, §3

CYP2C19 = target: T2, CYP2C19 (Homo sapiens, UniProt P33261); assay: HLM-LC-MS CYP450 inhibition assay, CYP2C19; assay type: in vitro ADME
T2 construct: from tissue; host or cells: human liver microsomes
Description: Compounds were tested in triplicate.

[3] = male, Sprague-Dawley, rat, in vivo
SD rats = assay: Determination of maximum tolerated dose (MTD) in rats; assay type: in vivo; conditions: SD rats, 5 exposed
Description: as §1, §2, §3

[4] = as above; assay type: in vivo; conditions: Sprague-Dawley, in vivo, read-out: tolerated dosage (MTD study)
Description: as §1, §2, §3

CYP2C9 = target: T3, CYP2C9 (Homo sapiens, UniProt P11712); assay: HLM-LC-MS CYP450 inhibition assay, CYP2C9; assay type: in vitro ADME
T3 construct: from tissue; host or cells: human liver microsomes
Description: as §4, §5

in vivo [5] = conditions: mouse, in vivo; for AUC(0-inf): AUC0-inf; for AUC(0-t): AUC0-t; for k el: Kel; for half-life: t1/2
Description: After dosing, blood samples were collected at different time points for each group. […] Three animals were used for each time point. Approximately 800 μL of blood was collected via orbital vein (a source of collecting sufficient volume of venous blood) from each anesthetized mouse by isoflurane, and 200 μL of blood was collected from the cannula implanted in the jugular vein. The catheter was implanted when the blood sample was collected at the first time point. Next, the blood was transferred to a prepared tube containing sodium heparin anticoagulant and mixed briefly by gentle inversion three to four times. The target and actual time of blood sampling were recorded relative to the time of dosing. Samples were placed on wet ice immediately after collection. Within 1 hour after collection, plasma was separated by centrifugation at 4,000 rpm for 10 minutes at 4 °C. The plasma was protected from light and stored at −80 °C until analyzed by liquid chromatography-mass spectrometry/mass spectrometry (LC-MS/MS) for quantification.
Using the data from the standards, calibration curves were generated for each analytical batch. Aliquots of 10.0 μL of samples, calibraton curve samples, and QC samples were supplemented with 100 μL of precipitant (a mixture of acetone and acetonitrile (30:70)). After vortexing for 3 min and centrifuging at 12,000 rpm for 3 min, 75.00 μL of the supernatant was transferred into a 96-well microplate with an equal volume of water. The 10 μL mixture solution was injected for LC-MS/MS analysis.
Data collection was performed using Analyst version 1.4 from Applied Biosystems. […] The data were also analyzed using Prism 5.0 software. Statistical significance was determined using independent two-tailed Student t-tests and one-way ANOVA for independent data. Differences of P < 0.05 were regarded as significant for all statistical analyses.

T1 sequence (P08684 whole entry): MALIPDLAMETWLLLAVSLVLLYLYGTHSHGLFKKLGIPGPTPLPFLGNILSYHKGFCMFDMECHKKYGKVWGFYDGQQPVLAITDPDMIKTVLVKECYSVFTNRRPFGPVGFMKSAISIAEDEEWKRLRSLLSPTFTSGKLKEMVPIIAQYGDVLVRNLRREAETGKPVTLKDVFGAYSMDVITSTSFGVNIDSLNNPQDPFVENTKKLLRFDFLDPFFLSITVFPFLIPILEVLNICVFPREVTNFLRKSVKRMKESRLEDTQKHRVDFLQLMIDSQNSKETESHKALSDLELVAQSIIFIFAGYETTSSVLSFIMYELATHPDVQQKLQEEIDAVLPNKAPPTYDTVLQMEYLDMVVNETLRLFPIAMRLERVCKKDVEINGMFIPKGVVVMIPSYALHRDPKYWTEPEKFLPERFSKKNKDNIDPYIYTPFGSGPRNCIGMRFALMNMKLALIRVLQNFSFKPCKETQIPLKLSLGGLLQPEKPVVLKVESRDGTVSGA
T3 sequence (P11712 whole entry): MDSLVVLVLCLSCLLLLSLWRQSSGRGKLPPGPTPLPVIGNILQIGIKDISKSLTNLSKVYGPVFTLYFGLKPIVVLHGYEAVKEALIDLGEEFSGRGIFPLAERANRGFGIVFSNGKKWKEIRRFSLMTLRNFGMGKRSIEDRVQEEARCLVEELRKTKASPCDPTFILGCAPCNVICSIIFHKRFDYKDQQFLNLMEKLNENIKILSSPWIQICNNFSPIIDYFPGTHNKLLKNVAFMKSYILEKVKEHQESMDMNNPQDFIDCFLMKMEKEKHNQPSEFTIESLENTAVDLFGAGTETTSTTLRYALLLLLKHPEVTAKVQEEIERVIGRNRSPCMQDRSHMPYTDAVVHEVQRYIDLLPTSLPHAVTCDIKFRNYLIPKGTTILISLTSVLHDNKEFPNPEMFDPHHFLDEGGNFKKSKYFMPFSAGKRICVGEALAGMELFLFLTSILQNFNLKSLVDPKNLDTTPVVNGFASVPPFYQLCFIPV
Chain of CYP2D6 (P10635 whole entry): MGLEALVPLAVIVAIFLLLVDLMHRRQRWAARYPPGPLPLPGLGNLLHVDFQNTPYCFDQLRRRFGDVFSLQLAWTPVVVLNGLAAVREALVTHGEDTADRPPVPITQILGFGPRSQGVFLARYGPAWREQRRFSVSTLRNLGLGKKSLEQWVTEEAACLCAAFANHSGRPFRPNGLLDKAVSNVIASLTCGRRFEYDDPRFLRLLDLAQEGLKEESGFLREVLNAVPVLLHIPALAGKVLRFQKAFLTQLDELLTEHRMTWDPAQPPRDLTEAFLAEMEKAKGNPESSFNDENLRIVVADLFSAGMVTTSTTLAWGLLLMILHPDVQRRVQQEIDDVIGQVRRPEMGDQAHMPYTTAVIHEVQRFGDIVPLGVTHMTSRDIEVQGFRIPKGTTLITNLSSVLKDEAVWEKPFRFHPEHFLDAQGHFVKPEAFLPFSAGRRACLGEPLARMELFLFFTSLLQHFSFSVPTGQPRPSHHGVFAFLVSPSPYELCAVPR
T2 sequence (P33261 whole entry): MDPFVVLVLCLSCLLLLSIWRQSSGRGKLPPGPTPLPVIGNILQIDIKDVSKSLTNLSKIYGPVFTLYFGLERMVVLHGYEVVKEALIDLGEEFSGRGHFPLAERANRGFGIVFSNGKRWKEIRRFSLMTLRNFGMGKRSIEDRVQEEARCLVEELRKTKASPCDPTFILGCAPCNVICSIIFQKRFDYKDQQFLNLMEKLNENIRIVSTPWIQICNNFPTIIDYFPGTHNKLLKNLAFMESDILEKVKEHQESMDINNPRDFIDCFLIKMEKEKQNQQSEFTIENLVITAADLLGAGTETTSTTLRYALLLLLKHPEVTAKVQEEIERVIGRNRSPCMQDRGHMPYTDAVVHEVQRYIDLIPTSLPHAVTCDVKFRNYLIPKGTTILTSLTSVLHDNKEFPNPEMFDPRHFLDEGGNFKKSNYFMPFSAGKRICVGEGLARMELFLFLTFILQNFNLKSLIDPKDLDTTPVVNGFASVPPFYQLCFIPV

With `COc1ccc(-c2cc(C(O)C3CCCCN3)c3ccccc3n2)cc1` (centres unmarked) [NSC23925b, (2-(4-methoxyphenyl)-4-quinolinyl)(2-piperidinyl)methanol] the CYP inhibitor class (CYP3A4) was “weak (IC50 values of >10 μM)”, the IC50 (CYP3A4; substrate midazolam 5 μM, 1-hydroxylation, read-out: Compound IC50) was greater than 10 µM and the IC50 (CYP3A4; substrate not specified, read-out: IC50) was greater than 10 µM. The IC50 (CYP3A4; substrate testosterone 80 μM, 6ß-hydroxylation, read-out: Compound IC50) was greater than 10 µM, the Cmax (in vivo [1]; ip, 5 mg/kg) was 128 ± 44.3 ng/mL and the AUC(0-inf) (in vivo [1]; ip, 5 mg/kg) was 1990 ± 855 ng·h/mL. The AUC(0-t) (in vivo [1]; ip, 5 mg/kg) was 1390 ± 173 ng·h/mL, the k el (in vivo [1]; ip, 5 mg/kg) was 2.29e-05 s⁻¹ and the half-life (in vivo [1]; ip, 5 mg/kg) was 9.24 ± 3.77 h. It also gave a Tmax (in vivo [1]; ip, 5 mg/kg, tmax) of roughly 2.17 h, an AUC(0-inf) (in vivo [1]; iv, 2.5 mg/kg) of 902 ± 57.4 ng·h/mL and an AUC(0-t) (in vivo [1]; iv, 2.5 mg/kg) of 766 ± 51.9 ng·h/mL. It also gave a clearance (in vivo [1]; iv, 2.5 mg/kg, CL) of 46.3 ± 3.06 mL/min/kg, a k el (in vivo [1]; iv, 2.5 mg/kg) of 2.18e-05 s⁻¹ and a Vd (in vivo [1]; iv, 2.5 mg/kg, VdSS) of 32.4 ± 3.06 L/kg. The half-life (in vivo [1]; iv, 2.5 mg/kg) was 8.86 ± 0.541 h, the IC50 (CYP2D6; Compound IC50, HLM, substrate bufuralol 10 μM) was 1.41 µM and the CYP inhibitor class (CYP2D6; HLM, bufuralol) was “moderate (1–10 μM)”. For the same compound, the “Number of Death” value (BALB/c mice; I.P., 68.80 mg/kg, male) was 0, the “Number of Death” value (BALB/c mice; I.P., 93.75 mg/kg, female) was 2 and the “Number of Death” value (BALB/c mice; I.V., 24.70 mg/kg, female) was 0. The “Number of Death” value (BALB/c mice; I.V., 24.70 mg/kg, male) was 0, the MTD ([2]; BALB/c, ip, male mice, I.P., all five tolerated, read-out: tolerated dosage (MTD study)) was 68.8 mg/kg and the MTD ([2]; both sexes, BALB/c (mice), Sprague-Dawley (rats), intraperitoneal, intravenous, rodents (mice and rats), I.P./I.V., read-out: tolerated dosage according to the MTD results) was 24.7 to 93.8 mg/kg. The MTD ([2]; both sexes, BALB/c, iv, female and male mice, I.V., health conditions not significantly influenced, read-out: tolerated dosage (MTD study)) was 24.7 mg/kg, the CYP inhibitor class (CYP2C19) was “weak (IC50 values of >10 μM)” and the IC50 (CYP2C19; substrate S-mephenytoin 35 μM, 4-hydroxylation, read-out: Compound IC50) was greater than 10 µM. The AUMC0-inf ([3]; ip, 5 mg/kg) was 38450 ± 36415 h·h·ng·mL^−1, the AUMC0-t ([3]; ip, 5 mg/kg) was 13328 ± 5611 h·h·ng·mL^−1 and the F ([3]; ip, 5 mg/kg) was 110.6 ± 47.4%. The AUMC0-inf ([3]; iv, 2.5 mg/kg) was 10502 ± 642 h·h·ng·mL^−1, the AUMC0-t ([3]; iv, 2.5 mg/kg) was 5504 ± 317 h·h·ng·mL^−1 and the MRTIV ([3]; iv, 2.5 mg/kg) was 11.7 ± 0.512 h. The “Number of Death” value (SD rats; I.P., 33.10 mg/kg, male) was 0, the “Number of Death” value (SD rats; I.P., 47.20 mg/kg, female) was 1 and the “Number of Death” value (SD rats; I.V., 38.80 mg/kg, male) was 0. The “Number of Death” value (SD rats; I.V., 47.20 mg/kg, female) was 1, the MTD ([4]; iv, female rats, I.V., one female rat moribund) was 47.2 mg/kg and the MTD ([4]; rat, ip, male rats, I.P., all in good status) was 33.1 mg/kg. For the same compound, the MTD ([4]; rat, iv, male rats, I.V.) was 38.8 mg/kg, the CYP inhibitor class (CYP2C9) was “weak (IC50 values of >10 μM)” and the IC50 (CYP2C9; substrate diclofenac 10 μM, 4-hydroxylation, read-out: Compound IC50) was greater than 10 µM. For the same compound, the “volumes of distribution at a steady state” value (in vivo [5]; male, BALB/c (mice), Sprague-Dawley (rats)) was greater than 9 L/kg, the “time of highest concentrations in plasma after I.P. injection” value (in vivo [5]; male, BALB/c (mice), Sprague-Dawley (rats), ip, 5 mg/kg) was 1 to 2 h and the “time of highest concentrations in plasma after I.V. injection” value (in vivo [5]; male, BALB/c (mice), Sprague-Dawley (rats), iv, 2.5 mg/kg) was 5 min. For the same compound, the “time point of peak plasma NSC23925b concentrations for both I.V. and I.P.” value (in vivo [5]; male, BALB/c) was 15 min, the AUMC0-inf (in vivo [5]; male, BALB/c, ip, 5 mg/kg) was 50744 ± 36083 h·h·ng·mL^−1 and the AUMC0-t (in vivo [5]; male, BALB/c, ip, 5 mg/kg) was 25329 ± 4810 h·h·ng·mL^−1. It also gave a Cmax (in vivo [5]; male, BALB/c, ip, 5 mg/kg) of 298 ± 56.1 ng/mL, an F (in vivo [5]; male, BALB/c, ip, 5 mg/kg) of 117.1 ± 24.06% and an AUC(0-inf) (in vivo [5]; male, BALB/c, ip, 5 mg/kg) of 3980 ± 819 ng·h/mL. For the same compound, the AUC(0-t) (in vivo [5]; male, BALB/c, ip, 5 mg/kg) was 3360 ± 197 ng·h/mL, the k el (in vivo [5]; male, BALB/c, ip, 5 mg/kg) was 2.56e-05 s⁻¹ and the half-life (in vivo [5]; male, BALB/c, ip, 5 mg/kg) was 8.69 ± 4.18 h. The Tmax (in vivo [5]; male, BALB/c, ip, 5 mg/kg, tmax) was roughly 1.5 h, the AUMC0-inf (in vivo [5]; male, BALB/c, iv, 2.5 mg/kg) was 11945 ± 2141 h·h·ng·mL^−1 and the AUMC0-t (in vivo [5]; male, BALB/c, iv, 2.5 mg/kg) was 9893 ± 1299 h·h·ng·mL^−1. The MRTIV (in vivo [5]; male, BALB/c, iv, 2.5 mg/kg) was 6.99 ± 0.836 h, the AUC(0-inf) (in vivo [5]; male, BALB/c, iv, 2.5 mg/kg) was 1700 ± 130 ng·h/mL and the AUC(0-t) (in vivo [5]; male, BALB/c, iv, 2.5 mg/kg) was 1640 ± 114 ng·h/mL. For the same compound, the clearance (in vivo [5]; male, BALB/c, iv, 2.5 mg/kg, CL) was 24.6 ± 1.96 mL/min/kg, the k el (in vivo [5]; male, BALB/c, iv, 2.5 mg/kg) was 3.89e-05 s⁻¹ and the Vd (in vivo [5]; male, BALB/c, iv, 2.5 mg/kg, VdSS) was 10.3 ± 0.808 L/kg. The half-life (in vivo [5]; male, BALB/c, iv, 2.5 mg/kg) was 5.01 ± 0.661 h and the “treatment-related clinical signs during the pharmacokinetic study” value (in vivo [5]) was “no treatment-related clinical signs were observed”.
